Entries after “also recorded” stand apart in the source; their conditions may differ. Blank lines part the entries; values can stand above or below the compound they belong to.
What was measured:
mouse Mfsd2a [1] = molecular target: T1, mouse Mfsd2a (Mus musculus, UniProt Q9DA75); assay: TLC analysis of phospholipids (bio-incorporation of LPC into PC); assay type: cell-based
T1 construct: expressed in transfected cells; host or cells: HEK293
T1 sequence (Q9DA75 1-534): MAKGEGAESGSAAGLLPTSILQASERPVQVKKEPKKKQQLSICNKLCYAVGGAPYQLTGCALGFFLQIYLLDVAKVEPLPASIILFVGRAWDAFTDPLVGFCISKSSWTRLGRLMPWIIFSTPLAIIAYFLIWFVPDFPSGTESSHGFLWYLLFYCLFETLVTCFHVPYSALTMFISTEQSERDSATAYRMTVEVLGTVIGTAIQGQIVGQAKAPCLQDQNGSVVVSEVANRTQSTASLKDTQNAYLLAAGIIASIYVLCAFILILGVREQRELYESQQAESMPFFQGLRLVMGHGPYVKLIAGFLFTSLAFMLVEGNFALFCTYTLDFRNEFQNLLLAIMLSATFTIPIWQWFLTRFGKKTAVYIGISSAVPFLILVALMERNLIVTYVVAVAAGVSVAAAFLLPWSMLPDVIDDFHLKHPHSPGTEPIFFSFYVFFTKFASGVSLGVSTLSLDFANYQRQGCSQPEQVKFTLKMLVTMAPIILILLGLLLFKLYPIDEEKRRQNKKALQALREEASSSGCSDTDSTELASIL
Description: HEK293 cells overexpressing with pcDNA3.1Mfsd2a (WT), pcDNA3.1Mfsd2aD92A (D92A), pcDNA3.1Mfsd2aD96A, or pcDNA3.1 (mock) plasmids or human Mfsd2a (in Sport6 plasmid) were washed once with serum-free DMEM medium before incubation with 50 μM radiolabeled LPC [^14C]oleate, LPC [^14C]DHA or with 50 μM TopFluor-LPC and NBD-LPC. Lipids were extracted twice with HIP buffer for 30 mins. Lipids were dried with nitrogen stream and reconstituted in chloroform and spotted on TLC plates (Milipore). Solvent for phospholipid separation was chloroform/methanol/ammonia solution (25%) (50:25:6, per volume). TLC plates of radiolabeled phospholipids were dried for 30 mins and exposed overnight to Phosphorscreens and scanned with Typhoon FLA 9000 scanner (Agilent). TLC plates of fluorescent phospholipids were scanned with Typhoon FLA 9000 scanner and quantified using Imagequant software.

mouse Mfsd2a [2] = molecular target: T1, mouse Mfsd2a; assay: In vitro transport (uptake) of radiolabeled and fluorescent LPCs in HEK293 cells overexpressing Mfsd2a; assay type: cell-based; conditions: for comparison of Mfsd2a-mediated uptake (capacity to transport): HEK293 cells expressing Mfsd2a
Description: Uptake assays of radiolabeled LPCs or fluorescent LPCs were tested using HEK293 cells overexpressing Mfsd2a and mutants constructs. Briefly, HEK293 cells at 90-95% confluency were transfected using LIPOFECTAMINE 2000 (Invitrogen) with pcDNA3.1Mfsd2a (WT), pcDNA3.1Mfsd2aD92A (D92A), pcDNA3.1Mfsd2aD96A (D96A), or pcDNA3.1 (mock) plasmids. Uptake assays were performed after 24 hours of transfections. Prior to ligand incubation, HEK293 transfected cells were washed with serum-free DMEM before assays. For concentration and time dependent assays, radiolabeled LPCs were diluted in pre-warmed DMEM media. For sodium dependent assay, radiolabeled LPCs were diluted in transport buffer (5 mM KCl, 10 mM Hepes, pH 7.4) with 150 mM NaCl or 150 mM choline chloride. For sodium concentration dependent assays, any reductions in the concentration of NaCl were replaced by choline chloride in order to maintain a constant cation molarity of 150 mM. All assays were performed in 12 well-plates with triplicates and at 37° C.

Mfsd2a [3] = molecular target: T2, Mfsd2a (Mus musculus, UniProt Q9DA75); assay: In vivo transport of radiolabeled, fluorescent LPCs and unesterified DHA in Mfsd2a KO and wild-type mice; set-up: from tissue; host or cells: living mice; brain (blood-brain barrier endothelium), liver, heart; fetal brain
T2 sequence (Q9DA75 1-534): T1 sequence (Q9DA75 1-534)
Description: Male and female mice of age of 6-8 weeks were IV injected with 75 μl of 20 mM radiolabeled LPC-[…], 100 μl of 10 mM LPC-[^14C]DHA/BSA complex or 82 μl of 12.2 mM [^14C]DHA/BSA complex in a total volume of 150 μl of phosphate-buffered saline. At 2 hours post injection, mice were anesthetized and perfused for 5 mins with PBS containing 0.5% BSA in order to remove blood and lipid tracer bound to the brain vasculature. Tissues were harvested for lipid extraction. For lipid extraction, tissues were weighed and similar amounts of tissues were homogenized in chloroform/methanol. Lipids from the organic phase were mixed with scintillant and scintillation counted. Similar experiments were also performed with an injection of 300 μg NBD-LPC/BSA or 300 μg TopFluor-LPC/BSA complex per mouse. In this experiment, mice were perfused for 5 mins with PBS followed 15 mins perfusion with 4% paraformaldehyde (PFA) for tissue fixation. Brain sections of WT and KO with a thickness of 40 μm were prepared and scanned using green fluorescence mode in Typhoon FLA 9000 scanner (Agilent). NBD-LPC accumulation was expressed as fluorescence of each section per its area. Dietary DHA transport from mother to fetus was also measured using [^14C]DHA/BSA complex. Pregnant females at e18.5 was gavaged with bolus of [^14C]DHA/BSA complex (200 μl of 10 mM [^14C]DHA/BSA/mouse). Brain of fetuses were collected 20 hours post-gavage and weighed. Lipid extraction and radioactivity were performed as described above.

Mfsd2a [4] = molecular target: T2, Mfsd2a; assay: Competition transport assay with LPC-[3H]palmitate as ligand; assay type: cell-based; set-up: expressed in transfected cells; host or cells: HEK293; conditions: 25 μM LPC-[3H]palmitate; for competition for transport/uptake of LPC-[3H]palmitate: 10-fold molar excess (250 μM) competitor, 30 mins (PAF 15 mins)
Description: Briefly, 24 h post transfection of HEK293 cells with pcDNA3.1Mfsd2a (WT), pcDNA3.1Mfsd2aD92A (D92A), pcDNA3.1Mfsd2aD96A, or pcDNA3.1 (mock) plasmids were washed once with serum-free DMEM medium before addition of a mixture of 25 μM radiolabeled LPC-palmitate and 250 μM cold competitors, which were dissolved in 12% BSA. Total BSA concentration was kept constant in samples with or without cold competitors. Assays were performed at 37° C. for 30 mins. Competition assays with other LPC analogs such as foscholine detergents, and PAF were performed under the same conditions except for 15 mins. The reduced reaction time was necessary in order to limit potential negative effects of detergents and bioactive lipids on cell survival. All assays were performed in 12 well-plates with triplicates and at 37° C.
We next sought to determine ligand specificity and the chemical features of the LPC ligands that are required for transport by Mfsd2a.

Compound: CCCCCCCCCCCCCCCCCC(=O)OC[C@@H](O)COP(=O)([O-])OCC[N+](C)(C)C [LPC-18:0]
effect of cold LPC on transport of NBD-LPC (mouse Mfsd2a [1]; 10-fold molar excess of competitor): suppressed

Compound: CCCCCCCCCCCCCCCC(=O)OC[C@@H](O)COP(=O)([O-])OCC[N+](C)(C)C [LPC-[^3H]palmitate, 1-palmitoyl 2-lysophosphocholine]
comparison of Mfsd2a-mediated uptake (capacity to transport) (mouse Mfsd2a [2]): highest capacity to transport LPC-DHA, followed by LPC-oleate, and LPC-palmitate

reduction in brain uptake in Mfsd2a KO mice compared with wild-type (Mfsd2a [3]; i.v. injection, 2 hrs post-injection): more than 90% | uptake in peripheral tissues of KO mice compared with wild-type (Mfsd2a [3]; i.v. injection, liver and heart, 2 hrs): not decreased | brain uptake, unesterified DHA compared with LPC-DHA (Mfsd2a [3]; wild-type brain, same amount injected i.v., 2 hrs): far greater | comparison of Mfsd2a-mediated uptake (capacity to transport) (mouse Mfsd2a [2]): highest capacity | uptake of radiolabeled LPC by cells expressing Mfsd2a relative to control cells (mouse Mfsd2a [2]; HEK293 cells, wild-type Mfsd2a vs mock, LPC/BSA, 30 mins): enhanced concentration-dependent uptake
Compound: CCC=CCC=CCC=CCC=CCC=CCC=CCCC(=O)OC[C@@H](O)COP(=O)([O-])OCC[N+](C)(C)C [LPC-[^14C]DHA, 1-docosahexaenoyl 2-lysophosphocholine]
conversion of transported LPCs into PCs (mouse Mfsd2a [1]; HEK293 cells expressing Mfsd2a, radiolabeled LPC, TLC): rapid conversion of transported LPCs into PCs

Compound: CCCCCCCCCCCCC/C=C/[C@@H](O)[C@@H](N)COP(=O)([O-])OCC[N+](C)(C)C [Lysosphingomyelin]
competition for transport/uptake of LPC-[3H]palmitate (Mfsd2a [4]): competed | competition for transport/uptake of LPC-[3H]palmitate (Mfsd2a [4]; listed as lysosphingomyelin): strong competition

competition of foscholines with LPC-[3H]palmitate (Mfsd2a [4]; 250 μM competitor, 15 mins): strong competition
Compound: CCCCCCCCCCCCCCCCOP(=O)([O-])OCC[N+](C)(C)C [Miltefosine]

Compound: C[N+](C)(C)CCOP(=O)([O-])OC[C@H](O)COC(=O)CCCCCCCCCCCNc1ccc([N+](=O)[O-])c2nonc12 [NBD-LPC]
brain uptake (fluorescence of brain sections) in KO compared with wild-type (Mfsd2a [3]; 300 μg fluorescent LPC/BSA complex i.v.): significantly reduced | bio-incorporation of fluorescent LPC into phospholipids (PC) (mouse Mfsd2a [1]; HEK293 cells, 50 μM, TLC): bio-incorporated into membrane phospholipids | uptake/transport of fluorescent lysolipid by cells expressing wild-type Mfsd2a (mouse Mfsd2a [2]; HEK293 cells, vs mock, D92A, D96A): transported by Mfsd2a; also recorded: significantly enhanced uptake activity

competition for transport/uptake of LPC-[3H]palmitate (Mfsd2a [4]): not a competitor
Compound: C[N+](C)(C)CCOP(=O)([O-])OC[C@H](O)CO [glycerophosphatidylcholine, alpha-glycerylphosphocholine]

Compound: CCCCCCCCCCCCCCCCOC[C@@H](O)COP(=O)([O-])OCC[N+](C)(C)C [lysoplatelet activating factor]
competition for transport/uptake of LPC-[3H]palmitate (Mfsd2a [4]): strong competitors

competition for transport/uptake of LPC-[3H]palmitate (Mfsd2a [4]): not a competitor | competition for transport/uptake of LPC-[3H]palmitate (Mfsd2a [4]; listed as sphingosine 1-phosphate): did not compete
Compound: CCCCCCCCCCCCC/C=C/[C@@H](O)[C@@H](N)COP(=O)(O)O [sphingosine-1-phosphate]

competition for transport/uptake of LPC-[3H]palmitate (Mfsd2a [4]): non-competitive
Compound: lysophosphatidic acid [LPA]

competition for transport/uptake of LPC-[3H]palmitate (Mfsd2a [4]): weak competition
Compound: lysophosphatidylethanolamine [LPE]

Compound: lysophosphatidylserine [LPS]
competition for transport/uptake of LPC-[3H]palmitate (Mfsd2a [4]): weak competition

Compound: platelet activating factor
competition for transport/uptake of LPC-[3H]palmitate (Mfsd2a [4]): strong competitors | competition for transport/uptake of LPC-[3H]palmitate (Mfsd2a [4]; listed as PAF): strong competition

Reference: patent US10175256B2, “Compositions and methods utilizing lysophosphatidylcholine scaffolds” (National University Of Singapore, priority 2013, dated 2019)
